Reference: US7432255B2, “1H-indol-5-yl-piperazin-1-yl-methanone derivatives” (Hoffmann-La Roche Inc., priority 2006, dated 2008)

Target: T1, human H3R (Homo sapiens, UniProt Q9Y5N1)
T1 construct: expressed in transfected cells; host or cells: CHO cells
Assay: Binding assay with 3H-(R)α-methylhistamine (competition binding)
Details: competition binding vs 3H(R)α-methylhistamine (1 nM), membrane of the human H3R-CHO cell line; Ki calculated from IC50 by Cheng-Prusoff equation
Experimental: Binding Assay with ^3H—(R)α-methylhistamine
Saturation binding experiments were performed using HR3-CHO membranes prepared as described in Takahashi, K, Tokita, S., Kotani, H. (2003) J. Pharmacol. Exp. Therapeutics 307, 213-218.
An appropriate amount of membrane (60 to 80 μg protein/well) was incubated with increasing concentrations of ^3H(R)α-Methylhistamine di-hydrochloride (0.10 to 10 nM). Non specific binding was determined using a 200 fold excess of cold (R)α-methyl-histamine dihydrobromide (500 nM final concentration). The incubation was carried out at room temperature (in deep-well plates shaking for three hours). The final volume in each well was 250 μl. The incubation was followed by rapid filtration on GF/B filters (pre-soaked with 100 μl of 0.5% PEI in Tris 50 mM shaking at 200 rpm for two hours). The filtration was made using a cell-harvester and the filter plates were then washed five times with ice cold washing buffer containing 0.5 M NaCl. After harvesting, the plates were dried at 55° C. for 60 min, then scintillation fluid (Microscint 40, 40 microl in each well) was added and the amount of radioactivity on the filter was determined in Packard top-counter after shaking the plates for two hours at 200 rpm at room temperature.
Binding Buffer: 50 mM Tris-HCl pH 7.4 and 5 mM MgCl2×6H2O pH 7.4. Washing Buffer: 50 mM Tris-HCl pH 7.4 and 5 mM MgCl2×6H2O and 0.5 M NaCl pH 7.4.
Indirect measurement of affinity of H3R inverse agonists: twelve increasing concentrations (ranging from 10 μM to 0.3 nM) of the selected compounds were always tested in competition binding experiments using membrane of the human H3R—CHO cell line. […]
All compounds were tested at a single concentration in duplicate. […] Ki's were calculated from IC50 based on Cheng-Prusoff equation (Cheng, Y, Prusoff, W H (1973) Biochem Pharmacol 22, 3099-3108): Ki=IC50/[1+D/Kd] wherein D is the concentration of the radioligand and Kd is the binding constant for the radioligand binding to the receptor under the conditions used in the competition experiment.

T1 sequence (Q9Y5N1 whole entry): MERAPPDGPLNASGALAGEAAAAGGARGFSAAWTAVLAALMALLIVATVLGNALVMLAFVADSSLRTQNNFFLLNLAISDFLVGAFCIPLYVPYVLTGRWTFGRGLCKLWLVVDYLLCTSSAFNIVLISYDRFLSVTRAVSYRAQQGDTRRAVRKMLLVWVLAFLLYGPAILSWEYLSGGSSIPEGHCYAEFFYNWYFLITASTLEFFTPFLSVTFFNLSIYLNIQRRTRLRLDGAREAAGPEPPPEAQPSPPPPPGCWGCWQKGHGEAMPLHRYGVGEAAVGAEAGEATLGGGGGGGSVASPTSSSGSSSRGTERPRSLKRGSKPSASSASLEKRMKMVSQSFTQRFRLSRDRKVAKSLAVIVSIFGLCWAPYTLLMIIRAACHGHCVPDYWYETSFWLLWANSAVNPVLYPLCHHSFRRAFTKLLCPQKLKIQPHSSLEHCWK

| SMILES | Ki [nM] |
| --- | --- |
| CCN1CCC(n2ccc3cc(C(=O)N4CCN(C5CCCC5)CC4)ccc32)C1 (stereo not drawn) [Example 6, (4-cyclopentyl-piperazin-1-yl)-[1-(1-ethyl-pyrrolidin-3-yl)-1H-indol-5-yl]-methanone] | 5.9 |
| O=C(c1ccc2c(ccn2CC2CCCN(Cc3ccccc3)C2)c1)N1CCN(C2CCCC2)CC1 (stereo not drawn) [Example 11, [1-(1-benzyl-piperidin-3-ylmethyl)-1H-indol-5-yl]-(4-cyclopentyl-piperazin-1-yl)-methanone] | 12.1 |
| CC(C)N1CCN(C(=O)c2ccc3c(ccn3CCCN3CCCCC3C)c2)CC1 (stereo not drawn) [Example 59, (4-isopropyl-piperazin-1-yl)-{1-[3-(2-methyl-piperidin-1-yl)-propyl]-1H-indol-5-yl}-methanone] | 15.4 |
